In US5605929A, “Methods and compositions for inhibiting 5α-reductase activity” (priority 1995, dated 1997) one finds IC50 and inhibition data, which are given here for 30 compounds.

The target in this experiment is T1, 5α-Reductase of Rat Liver Microsomes (Rattus norvegicus, UniProt P24008).
T1 sequence (P24008 1-259): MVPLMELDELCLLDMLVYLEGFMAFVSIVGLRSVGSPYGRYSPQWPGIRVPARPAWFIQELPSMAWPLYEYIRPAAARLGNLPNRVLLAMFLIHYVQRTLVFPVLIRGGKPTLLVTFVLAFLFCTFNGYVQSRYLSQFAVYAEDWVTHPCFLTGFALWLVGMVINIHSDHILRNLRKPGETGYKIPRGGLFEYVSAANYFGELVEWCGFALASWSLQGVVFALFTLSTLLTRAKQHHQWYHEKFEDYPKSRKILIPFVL
Kind of experiment: biochemical. The note with it: for inhibition at 5 µM: read-out: % Inhibition of [^3 H]4-MA binding, Table 2, 5 μM.

Setting [1] is: read-out: % Inhibition of [^3 H]4-MA binding, Table 2, 10 μM.
Where [2] appears, read: read-out: % Inhibition of [^3 H]4-MA binding, Table 2, 40 μM.
[3] abbreviates: read-out: % Inhibition of [^3 H]4-MA binding, Table 2, 200 μM.
The mark [4] stands for this setting: read-out: % Inhibition of [^3 H]4-MA binding.

Where two headings read alike, the source gives them in different places.

Take `CCCCC/C=C\C/C=C\C/C=C\C/C=C\CCCCCC(=O)O`: half-maximal inhibition (IC50) was put at 46 µM and the inhibition at 5 µM is below 10%. Moreover, under setting [1], the inhibition at 10 µM is below 10%. Besides, the inhibition at 40 µM under setting [2] worked out at 41%. The inhibition at 200 µM under setting [3] came out at 79%.

For `CCCCCCCC/C=C\CCCCCCCCCCC(=O)O`, the IC50 stood at 154 µM and the inhibition at 5 µM was below 10%. Further, the inhibition at 10 µM under setting [1] was determined as 15%. Further, the inhibition at 40 µM under setting [2] worked out at 25%. The inhibition at 200 µM under setting [3] is 60%.

Take `CCCCCCCCC=CCC=CCC=CCCCC(=O)O` [5,8,11-eicosatrienoic acid]: the IC50 is 50 µM.

As to `CCCCCCCCCCCCCC/C=C\CCCC(=O)O` [5-Eicosenoic Acid, 5-eicosenoic acid], the IC50 was above 200 µM and the inhibition at 5 µM was below 10%. The inhibition at 10 µM under setting [1] was below 10%. Also, under setting [2], the inhibition at 40 µM was below 10%. The inhibition at 200 µM under setting [3] is below 10%.

For the compound `CCCCC/C=C\C/C=C\C/C=C\CCCCCCC(=O)O` [8,11,14-cis-Eicosatrienoic Acid, 8,11,14-eicosatrienoic acid], the half-maximal inhibitory concentration (IC50) amounted to 15 µM and the inhibition at 5 µM was below 10%. Besides, the inhibition at 10 µM under setting [1] is 42%. For the same compound, under setting [2], the inhibition at 40 µM turned out to be 92%. Also, the inhibition at 200 µM under setting [3] was determined as 82%.

Take `CCCCCCCCCCC/C=C\CCCCCCC(=O)O` [8-Eicosenoic Acid, 8-eicosenoic acid]: inhibition was half-maximal at 48 µM (IC50) and the inhibition at 5 µM was 14%. For the same compound, the inhibition at 10 µM under setting [1] was 41%. Further, the inhibition at 40 µM under setting [2] stood at 52%. Besides, under setting [3], the inhibition at 200 µM is 81%.

Regarding `CCCCC/C=C\C/C=C\CCCCCCCCC(=O)O` [10,13-Nonadecadienoic Acid, 10,13-nonadecadienoic acid], inhibition was half-maximal at 86 µM (IC50) and the inhibition at 5 µM was below 10%. In addition, the inhibition at 10 µM under setting [1] was below 10%. Moreover, under setting [2], the inhibition at 40 µM came to 37%. Under setting [3], the inhibition at 200 µM came to 83%.

In the case of `CCCC/C=C\CCCCCCCCC(=O)O` [10-Pentadecenoic Acid, 10-pentadecenoic acid], inhibition was half-maximal at 100 µM (IC50) and the inhibition at 5 µM is below 10%. Further, under setting [1], the inhibition at 10 µM was below 10%. Moreover, the inhibition at 40 µM under setting [2] was below 10%. The inhibition at 200 µM under setting [3] amounted to 71%.

Turning to `CCCCCC/C=C\CCCCCCCCC(=O)O` [10-cis-Heptadecenoic Acid, 10-heptadecenoic acid], 28 µM corresponded to half-maximal inhibition (IC50) and the inhibition at 5 µM is below 10%. Moreover, the inhibition at 10 µM under setting [1] was below 10%. Under setting [2], the inhibition at 40 µM came to 83%. Besides, the inhibition at 200 µM under setting [3] amounted to 84%.

As for `CCCCCCCC/C=C\CCCCCCCCC(=O)O` [10-cis-Nonadecenoic Acid, 10-nonadecenoic acid], the 50% inhibitory concentration (IC50) is 130 µM and the inhibition at 5 µM is below 10%. Moreover, the inhibition at 10 µM under setting [1] is below 10%. Besides, under setting [2], the inhibition at 40 µM was 13%. Besides, the inhibition at 200 µM under setting [3] was determined as 79%.

On to `CCCCCC/C=C/CCCCCCCCC(=O)O` [10-trans-Heptadecenoic Acid, 10-trans-heptadecenoicacid], for which the IC50 was above 200 µM and the inhibition at 5 µM was below 10%. The inhibition at 10 µM under setting [1] is below 10%. Moreover, the inhibition at 40 µM under setting [2] is below 10%. In addition, the inhibition at 200 µM under setting [3] was determined as 40%.

For the compound `CCCCCCCC/C=C/CCCCCCCCC(=O)O` [10-trans-Nonadecenoic Acid, 10-trans nonadecenoic acid], the IC50 was above 200 µM and the inhibition at 5 µM was below 10%. In addition, the inhibition at 10 µM under setting [1] was below 10%. The inhibition at 40 µM under setting [2] is below 10%. Also, the inhibition at 200 µM under setting [3] stood at 32%.

As to `CC/C=C\C/C=C\C/C=C\CCCCCCCCCC(=O)O` [11,14,17-cis-Eicosatrienoic Acid, 11,14,17-eicosatrienoic acid], the IC50 turned out to be 29 µM and the inhibition at 5 µM is below 10%. Also, the inhibition at 10 µM under setting [1] amounted to 1%. The inhibition at 40 µM under setting [2] is 78%. Besides, the inhibition at 200 µM under setting [3] was found to be 94%.

Consider `CC/C=C\C/C=C\C/C=C\CCCCCCCCCC(=O)Cl` [11,14,17-cis-Eicosatrienoyl Chloride, 11,14,17-eicosatrienoyl chloride], for which the IC50 is above 200 µM and the inhibition at 5 µM is below 10%. For the same compound, under setting [1], the inhibition at 10 µM was below 10%. For the same compound, under setting [2], the inhibition at 40 µM was below 10%. Besides, under setting [3], the inhibition at 200 µM is below 10%.

With `CCCCC/C=C\C/C=C\CCCCCCCCCC(=O)OC` [11,14-cis-Eicosadienoate, methyl 11,14 eicosadienoate], the IC50 is above 200 µM and the inhibition at 5 µM is below 10%. Moreover, the inhibition at 10 µM under setting [1] is below 10%. Under setting [2], the inhibition at 40 µM is below 10%. For the same compound, the inhibition at 200 µM under setting [3] is below 10%.

`CCCCC/C=C\C/C=C\CCCCCCCCCC(=O)O` [11,14-cis-Eicosadienoic Acid, 11,14 eicosadienoic acid]: the IC50 is 131 µM and the inhibition at 5 µM is below 10%. Also, the inhibition at 10 µM under setting [1] was below 10%. The inhibition at 40 µM under setting [2] was below 10%. Under setting [3], the inhibition at 200 µM came out at 89%.

As to `CCCCC/C=C\C/C=C\CCCCCCCCCC(=O)Cl` [11,14-cis-Eicosaidienoyl Chloride, 11,14-eicosadienoyl chloride], the concentration for half-maximal inhibition (IC50) was above 200 µM and the inhibition at 5 µM was below 10%. For the same compound, the inhibition at 10 µM under setting [1] is below 10%. The inhibition at 40 µM under setting [2] was below 10%. In addition, the inhibition at 200 µM under setting [3] was below 10%.

As for `CCCCC/C=C/C/C=C/CCCCCCCCCC(=O)O` [11,14-trans-Eicosadienoic Acid, trans 11,14-eicosadienoic acid], the IC50 is above 200 µM and the inhibition at 5 µM was below 10%. Moreover, the inhibition at 10 µM under setting [1] was below 10%. For the same compound, under setting [2], the inhibition at 40 µM is below 10%. In addition, the inhibition at 200 µM under setting [3] is below 10%.

As for `CCCCCCCC/C=C\CCCCCCCCCC(=O)O` [11-Eicosenoic Acid, 11 eicosenoic acid], the IC50 is 146 µM and the inhibition at 5 µM was below 10%. For the same compound, the inhibition at 10 µM under setting [1] was below 10%. Besides, the inhibition at 40 µM under setting [2] stood at 15%. Further, the inhibition at 200 µM under setting [3] is 76%.

Regarding `CCCCCC/C=C\CCCCCCCCCC(=O)O` [11-Octadecenoic Acid, 11-octadecenoic acid], the IC50 was 26 µM and the inhibition at 5 µM is below 10%. In addition, the inhibition at 10 µM under setting [1] is 14%. Moreover, the inhibition at 40 µM under setting [2] worked out at 55%. Further, the inhibition at 200 µM under setting [3] was 81%.

On to `CCCCC/C=C\CCCCCCCCCCC(=O)O` [12-Octadecenoic Acid, 12-octadecenoic acid], for which the IC50 was above 200 µM and the inhibition at 5 µM was below 10%. Also, the inhibition at 10 µM under setting [1] was below 10%. Under setting [2], the inhibition at 40 µM is below 10%. The inhibition at 200 µM under setting [3] is below 10%.

Turning to `CCCCCC/C=C\CCCCCCCCCCC(=O)O` [12-cis-Nonadecenoic Acid, 12-nonadecenoic acid], the half-maximal inhibitory concentration (IC50) was 90 µM and the inhibition at 5 µM is below 10%. Under setting [1], the inhibition at 10 µM was below 10%. For the same compound, the inhibition at 40 µM under setting [2] is 32%. Also, the inhibition at 200 µM under setting [3] amounted to 91%.

With `CC/C=C\C/C=C\C/C=C\CCCCCCCCCCCC(=O)O` [13,16,19-Docosatrienoic Acid, 13,16,19-docosatrienoic acid], the IC50 was 163 µM and the inhibition at 5 µM is below 10%. Moreover, the inhibition at 10 µM under setting [1] is below 10%. For the same compound, the inhibition at 40 µM under setting [2] was below 10%. Further, under setting [3], the inhibition at 200 µM amounted to 65%.

`CCCCC/C=C\C/C=C\CCCCCCCCCCCC(=O)O` [13,16-Docosadienoic Acid, 13,16-docosadienoic acid]: the IC50 stood at 118 µM and the inhibition at 5 µM is below 10%. Under setting [1], the inhibition at 10 µM is below 10%. Moreover, the inhibition at 40 µM under setting [2] worked out at 21%. For the same compound, the inhibition at 200 µM under setting [3] was found to be 93%.

Regarding `CCCC/C=C\CCCCCCCCCCCC(=O)O` [13-Octadecenoic Acid, 13-octadecenoic acid], the IC50 amounted to 93 µM and the inhibition at 5 µM was below 10%. Further, the inhibition at 10 µM under setting [1] was below 10%. In addition, the inhibition at 40 µM under setting [2] is below 10%. Further, under setting [3], the inhibition at 200 µM was determined as 57%.

As to `CCCCCCCC/C=C\CCCCCCCCCCCCC(=O)O` [14-Tricosenoic Acid, 14 tricosenoic acid], the IC50 was above 200 µM and the inhibition at 5 µM was below 10%. The inhibition at 10 µM under setting [1] is below 10%. Moreover, the inhibition at 40 µM under setting [2] was below 10%. Also, the inhibition at 200 µM under setting [3] was found to be 36%.

For the compound `CCCCCCCCCCCCCCCCCCCC(=O)Cl` [Arachidoyl Chloride, archidoyl chloride], the IC50 was above 200 µM. The inhibition at 10 µM under setting [1] is below 10%. The inhibition at 40 µM under setting [2] was below 10%. Moreover, the inhibition at 200 µM under setting [3] is below 10%.

On to `CCCCC/C=C\C/C=C\CCCCCCCC(=O)OC` [Linoleic acid methyl ester], for which, under setting [4], the inhibition at 40 µM is below 10% and the inhibition at 200 µM is below 10%.

On to `CC/C=C\C/C=C\C/C=C\CCCCCCCC(=O)Cl` [Linolenoyl Chloride], for which the inhibition at 200 µM under setting [4] was below 10%.

For `CCCCC/C=C\C/C=C\CCCCCCCCO` [Linoleyl alcohol], under setting [4], the inhibition at 10 µM was below 10%, the inhibition at 40 µM was below 10% and the inhibition at 200 µM is 25 ± 5%.

The IC50 is the concentration that inhibits the measured activity by half. Read a low IC50 as greater potency in that assay. What is called inhibition is the percentage by which the read-out fell short of the control.
